According to the NIST ThermoML archive (doi:10.1021/je050402s):

Legend:
[1] = 100.5 kPa, Liquid
[2] = xn = mol fraction of the nth substance listed; conditions: 100.5 kPa, Liquid, x2 = 0

CC(=O)OCc1ccccc1 [benzyl ethanoate]
[1]
Conditions | mass density [kg/m3]
288.15 K | 1060.11
298.15 K | 1050.75
308.15 K | 1041.39
318.15 K | 1032.03

[1], Capillary tube (Ostwald / Ubbelohde) method
Conditions | viscosity [mPa·s]
288.15 K | 2.53
298.15 K | 2.056
308.15 K | 1.703
318.15 K | 1.432

CCC(=O)OCc1ccccc1 [benzyl propanoate]
[1]
Conditions | mass density [kg/m3]
288.15 K | 1036.86
298.15 K | 1027.6
308.15 K | 1018.38
318.15 K | 1009.15

[1], Capillary tube (Ostwald / Ubbelohde) method
Conditions | viscosity [mPa·s]
288.15 K | 2.55
298.15 K | 2.123
308.15 K | 1.787
318.15 K | 1.515

CCO [ethanol]
[1]
Conditions | mass density [kg/m3]
288.15 K | 793.6
298.15 K | 785
308.15 K | 776.31
318.15 K | 767.44

[1], Capillary tube (Ostwald / Ubbelohde) method
Conditions | viscosity [mPa·s]
288.15 K | 1.337
298.15 K | 1.105
308.15 K | 0.921
318.15 K | 0.771

CCO [ethanol] + CC(=O)OCc1ccccc1
[2], Capillary tube (Ostwald / Ubbelohde) method
Conditions | viscosity [mPa·s]
288.15 K | 1.337
298.15 K | 1.105
308.15 K | 0.921
318.15 K | 0.771

[2]
Conditions | mass density [kg/m3]
288.15 K | 793.6
298.15 K | 785
308.15 K | 776.31
318.15 K | 767.44

CCO [ethanol] + CCC(=O)OCc1ccccc1
[2], Capillary tube (Ostwald / Ubbelohde) method
Conditions | viscosity [mPa·s]
288.15 K | 1.337
298.15 K | 1.105
308.15 K | 0.921
318.15 K | 0.771

[2]
Conditions | mass density [kg/m3]
288.15 K | 793.6
298.15 K | 785
308.15 K | 776.31
318.15 K | 767.44

CCO [ethanol] + CCOC(=O)CC(C)=O
[2], Capillary tube (Ostwald / Ubbelohde) method
Conditions | viscosity [mPa·s]
288.15 K | 1.337
298.15 K | 1.105
308.15 K | 0.921
318.15 K | 0.771

[2]
Conditions | mass density [kg/m3]
288.15 K | 793.6
298.15 K | 785
308.15 K | 776.31
318.15 K | 767.44

CCO [ethanol] + CCOC(=O)CC(C)C
[2], Capillary tube (Ostwald / Ubbelohde) method
Conditions | viscosity [mPa·s]
288.15 K | 1.337
298.15 K | 1.105
308.15 K | 0.921
318.15 K | 0.771

[2]
Conditions | mass density [kg/m3]
288.15 K | 793.6
298.15 K | 785
308.15 K | 776.31
318.15 K | 767.44

CCO [ethanol] + CCOC(=O)c1ccccc1O
[2]
Conditions | mass density [kg/m3] | viscosity [mPa·s]
288.15 K | 793.6 | 1.337
298.15 K | 785 | 1.105
308.15 K | 776.31 | 0.921
318.15 K | 767.44 | 0.771

CCO [ethanol] + COC(=O)c1ccccc1
[2], Capillary tube (Ostwald / Ubbelohde) method
Conditions | viscosity [mPa·s]
288.15 K | 1.337
298.15 K | 1.105
308.15 K | 0.921
318.15 K | 0.771

[2]
Conditions | mass density [kg/m3]
288.15 K | 793.6
298.15 K | 785
308.15 K | 776.31
318.15 K | 767.44

CCOC(=O)c1ccccc1O [ethyl 2-hydroxybenzoate]
[1]
Conditions | mass density [kg/m3] | viscosity [mPa·s]
288.15 K | 1134.72 | 3.694
298.15 K | 1125 | 2.831
308.15 K | 1115.29 | 2.253
318.15 K | 1105.6 | 1.842

CCOC(=O)CC(C)C [ethyl 3-methylbutanoate]
[1]
Conditions | mass density [kg/m3]
288.15 K | 869.66
298.15 K | 859.78
308.15 K | 849.83
318.15 K | 839.81

[1], Capillary tube (Ostwald / Ubbelohde) method
Conditions | viscosity [mPa·s]
288.15 K | 0.853
298.15 K | 0.739
308.15 K | 0.642
318.15 K | 0.566

CCOC(=O)CC(C)=O [ethyl 3-oxobutanoate]
[1]
Conditions | mass density [kg/m3]
288.15 K | 1033.92
298.15 K | 1023.45
308.15 K | 1013
318.15 K | 1002.54

[1], Capillary tube (Ostwald / Ubbelohde) method
Conditions | viscosity [mPa·s]
288.15 K | 1.902
298.15 K | 1.581
308.15 K | 1.344
318.15 K | 1.144

COC(=O)c1ccccc1 [methyl benzoate]
[1]
Conditions | mass density [kg/m3]
288.15 K | 1093.23
298.15 K | 1083.92
308.15 K | 1074.34
318.15 K | 1064.62

[1], Capillary tube (Ostwald / Ubbelohde) method
Conditions | viscosity [mPa·s]
288.15 K | 2.297
298.15 K | 1.851
308.15 K | 1.531
318.15 K | 1.297
